# Assay results reported in patent US6495376B1, “Methods and compositions for regulating protein-protein interactions” (Beth Israel Deaconess Medical Center, priority 1999, dated 2002).
# Like-named read-outs stand apart in the source and are kept apart here.
# Experiments:
# Pin1^R14A = target: T1, Pin1^R14A (Homo sapiens, UniProt Q13526, R14A); assay: ELISA peptide binding to Pin1^R14A; details: mutant Pin1^R14A
# T1 construct: mitotic HeLa cell extracts incubated with the entire Pin1 protein or its WW-domain; GST or His (N); made in house
# T1 sequence (Q13526 whole entry R14A): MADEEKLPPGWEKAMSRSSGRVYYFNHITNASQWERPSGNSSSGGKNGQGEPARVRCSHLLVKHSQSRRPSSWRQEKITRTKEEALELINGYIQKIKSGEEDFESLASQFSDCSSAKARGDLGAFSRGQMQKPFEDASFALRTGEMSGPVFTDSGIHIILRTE
# Pin1 = Pin1 (Homo sapiens, UniProt Q13526); assay: ELISA peptide binding to Pin1; details: Pin1
# Chain of Pin1 (Q13526 whole entry): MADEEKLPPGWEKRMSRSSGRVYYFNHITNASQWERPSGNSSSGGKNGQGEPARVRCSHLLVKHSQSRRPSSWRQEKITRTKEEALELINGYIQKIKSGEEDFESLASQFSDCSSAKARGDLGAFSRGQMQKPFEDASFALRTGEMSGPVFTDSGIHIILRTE
# Pin1^Y23A = target: T2, Pin1^Y23A (Homo sapiens, UniProt Q13526, Y23A); assay: ELISA peptide binding to Pin1^Y23A; details: mutant Pin1^Y23A
# T2 construct: mitotic HeLa cell extracts incubated with the entire Pin1 protein or its WW-domain; GST or His (N); made in house
# T2 sequence (Q13526 whole entry Y23A): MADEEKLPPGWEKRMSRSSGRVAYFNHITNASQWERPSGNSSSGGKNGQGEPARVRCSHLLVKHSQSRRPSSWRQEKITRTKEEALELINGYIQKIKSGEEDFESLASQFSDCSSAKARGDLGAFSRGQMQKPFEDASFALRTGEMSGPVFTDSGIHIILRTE
# [1] = target: […] (Cdc25 Peptide, nonphosphorylated); assay: GST-WW-domain incubated with peptide on a membrane, immunoblotting with GST antibody; format: binding
# WFYpSPFLE (Pintide) = assay: Fluorescence anisotropy (polarization) binding to fluorescein-labeled phosphorylated Pintide analogue; details: for Kd for Pintide (μM): fluorescein labeled Pintide, high affinity pSer-binding site in the WW-domain
# Text: To determine the affinity of Pin1, and its WW or PPIase domain for phosphopeptides, peptides were labeled with fluorescein and their interactions with Pin1 measured using quantitative fluorescence anisotrophy. To prevent nonspecific labeling, a Pintide analogue (WFYpSPFLE) SEQ ID NO: 9 was used, which binds Pin1 with a high affinity based on the peptide library screen as described by (Lu, K. P. et al., U.S. Ser. No. 60/058,164 (1997), the teachings of which are incorporated herein in their entirety.
# (§1) Pintide and its nonphosphorylated counterpart were synthesized and incubated with GST-Pin1 or the GST-WW-domain of Pin1 in a binding buffer, using established procedures (Shen, M. et al., Genes & Dev 12:706 (1998)). After a 1 hr incubation, mitotic HeLa cell extracts were added and subjected to GST pull down experiments, followed by immunoblotting analysis using the MPM-2 antibody. To obtain semi-quantitative data, films of immunoblots were scanned at the region of 55 kDa, the major Pin1-binding protein, and data analyzed using ImageQuan (ScanJet II CX). The peptide binding constants were measured using a fluorescence polarization assay (Jiskoot, W. et al., Anal Biochem 196:421 (1991)). Peptides were fluorescein labeled at the N-terminus using the Fluorescein Amine Labeling Kit (Pan Vera Corp.) and purified by TLC according to the manufacturer's […]. To prevent nonspecific labeling, a Pintide analogue (WFYpSPFLE) SEQ ID NO: 8 and the nonphosphorylated control were used. Various concentrations of Pin1 and its mutant proteins were incubated with 0.1 μM of the labeled peptides in a binding buffer containing 50 mM HEPES, pH 7.4, 100 mM NaCl, 2% glycerol. Fluorescence polarization values were obtained using a Pan Vera Beacon 2000 system, as described by the manufacturer.
# [2] = target: EQPLpTPVTDL (Cdc25 Peptide); assay: Fluorescence anisotropy binding to fluorescein-labeled phosphorylated Cdc25 peptide; details: GST-WW-domains
# [3] = tested on: MPM-2 antigens (mitotic phosphoproteins) of mitotic HeLa cell extracts; assay: GST pulldown from mitotic HeLa cell extracts, MPM-2 immunoblotting (phosphoprotein-binding activity); details: for binding to mitotic phosphoproteins / MPM-2 antigens (in words): mitotic HeLa cell extracts; for Phosphoprotein binding activity: GST-fusion proteins with mitotic extracts, MPM2 antibody
# Protocol: GST-fusion proteins containing the WW-domain, PPIase-domain or the entire Pin 1 protein were prepared and incubated with interphase (G1/S arrested; Control) or dividing (M phase) HeLa cell extracts using well-known procedures (Lu, K. P., et al., Nature 380:544 (1996); (Shen, M., et al., Genes & Devl. 12:706 (1998)). Briefly, HeLa cells were arrested at the G1/S boundary or mitosis by incubation with thymidine and aphidicolin or nocodazole for 16 h, respectively. The cells were lysed and supernatants incubated with 10 μl of agarose beads containing GST-Pin1; GST-WW-domain of Pin1; GST-PPIase domain of Pin1; or control GST for 2 h at 4° C. The phosphorylated precipitated proteins were washed 5 times in buffer containing 1% Triton X-100 before subjecting to immunoblotting analysis using MPM-2 antibody, as described previously (Yaffe, M. B. et al., Science 278:1957 (1997); Schukowski, et al., Biochemistry 37:5566 (1998); Shen, M. et al., Genes & Dev 12:706 (1998)). MPM-2 recognizes a subset of mitotic phosphoproteins including Pin1-binding proteins such as cdc25.
# as §1
# To examine the effect of Pin1 phosphorylation on Pin1 binding to ligands, Pin1 and Pin1 mutant proteins were incubated with the catalytic subunit of PKA and PKC (a mixture of α, β and γ, UBI) in a kinase reaction buffer containing 500 μM cold ATP at 30° C. for 15 min (Lu, K. P. et al., Anal. Biochem. 196:421 (1991)). The reactions were stopped by adding SDS sample buffer and reaction products separated on SDS-gels, followed by autoradiography. Pin1 proteins were isolated and used to bind MPM-2 antigens from mitotic extracts from HeLa cells, as previously described (Shen, M., et al., Genes & Dev 12:706 (1998)). Experiments were also performed with PKA and PKC, casein kinase, cyclin B/Cdc2 and SRPK1 kinases.
# WFYSPFLE = assay: Fluorescence anisotropy binding to fluorescein-labeled nonphosphorylated control peptide; details: GST-WW-domains, N.B., not binding detected
# [4] = tested on: temperature-sensitive ptf1 yeast mutant (YPM2); assay: Rescue of temperature-sensitive ptf1 yeast mutant (in vivo function); format: cell-based; details: YPM2 cells, restrictive temperature
# Protocol: Given the essential role of the WW-domain in conferring Pin1-binding specificity in vitro, a critical question is whether this domain is important in vivo. To address this question, experiments using the PIN1 yeast homologue, ESS1/PTF1 were performed. ESS1/PTF1 is essential for cell growth and human Pin1 can carry out this essential function when transfected into yeast cells (Lu, K. P. et al., Nature 380:544 (1996); Hanes, S. D. et al., Yeast 5:55 (1989); Hani, J. et al., FEBS Lett. 365:198 (1995)). A temperature-sensitive ptf1 mutant strain, YPM2, grows at the permissive temperature (23° C.), but not at the restrictive temperature (30° C.) (Hanes, S. D. et al., Yeast 5:55 (1989); Hani, J. et al., FEBS Lett. 365:198 (1995)). This phenotype is completely rescued by a 1.5 kb PTF1 genomic fragment, which also contains the promoter and the 3′ processing sequence (FIG. 3). To insure that all human Pin1 proteins were expressed at physiological levels under normal regulation, the coding sequence of the fully functional ESS1/PTF1 gene in a Yepvector was replaced with the coding sequence of the human PIN1 (or Pin1 mutant) cDNA (FIG. 3) and transformed into a temperature-sensitive ptf1 strain. Transformants were selected on minimal media minus Leu at the permissive temperature (23° C.) and protein expression was detected by immunoblotting analysis using 12CA5 monoclonal antibody specific for the HA epitope tag inserted at the N-terminus. […] Those strains expressing similar levels of Pin1 and Pin1 mutants were grown at permissive and nonpermissive temperature.
# peptide substrate = assay: PPIase activity assay with peptide substrate; format: biochemical; details: relative to wild-type protein defined as 100%
# tau-promoted MT assembly = assay: Microtubule assembly light-scattering assay (turbidity at 350 nm); format: biochemical; details: 0.05 mg/ml protein, 0.05 mg/ml tau
# Chain of tau-promoted MT assembly (P10636 45-219 isoform P10636-2 limits assumed): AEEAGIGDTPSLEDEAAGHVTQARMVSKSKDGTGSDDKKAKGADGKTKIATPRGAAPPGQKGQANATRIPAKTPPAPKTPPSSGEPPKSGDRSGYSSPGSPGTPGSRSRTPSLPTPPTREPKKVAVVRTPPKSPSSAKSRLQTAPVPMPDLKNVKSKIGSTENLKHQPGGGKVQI
# Protocol: The effect of Pin1 on the ability of phosphorylated tau to promote MT assembly was determined using light-scattering assays (Bramblett, G. T. et al., Neuron 10:1089-1099(1993); Alonso, A. C. et al., Proc Natl Acad Sci USA 91:5562-5566 (1994); Busciglio, J. et al., Neuron 14:879-888 (1995)). Briefly, MTs were assembled from phosphocellulose purified bovine tubulin (Cytoskeleton, Inc) and stabilized by Taxol. The nonphosphorylated or Cdc2 phosphorylated recombinant tau (0.1 mg/ml) was incubated with Pin1 (0.1 mg/ml) at 35° C. for 5 min before adding to the MTs. Bound tau was isolated by centrifugation (50,000×g) at 25° C. for 20 min, followed by immunoblotting analysis using CP27 and Pin1 antibodies. The ability of tau to promote MT assembly was determined using well established light-scattering assays. Briefly, the assembly of MTs was initiated by incubating tubulin (2 mg/ml) with or without tau (0.05 mg/ml) in 80 mM PIPES, pH 6.8, 1 mM EGTA, 1 mM MgCl2, 1 mM GTP, 20% glycerol at 35° C. for 2 min. The mixture was then transferred to a 100 μl cuvet and the rate of the MT assembly was monitored at room temperature using the turbidity increase at 350 nm. To examine the effect of Pin1, Pin1 or its mutant (0.05 mg/ml) was pre-incubated with tau or Cdc2 phosphorylated tau (0.05 mg/ml) at 35° C. for 5 min before the MT assembly assays.
# [5] = low affinity binding site, read-out: WFYpSPFLE Kd(μM) Low affinity
Compound,"Binding (OD@405 nm), tau peptide (Pin1^R14A) [OD@405 nm]","Binding (OD@405 nm), tau peptides (Pin1) [OD@405 nm]","Binding (OD@405 nm), tau peptide (Pin1^Y23A) [OD@405 nm]",Kd (μM) Cdc25 Peptide EQPLTPVTDL [1],"Kd (WFYpSPFLE (Pintide); GST-WW-domains, fluorescein-labeled peptide, average of three independent experiments, read-out: Kd (μM) Pintide WFYpSPFLE) [µM]",Kd [2] [µM],binding to mitotic phosphoproteins / MPM-2 antigens (in words) [3],Kd (μM) Pintide nonphosphorylated WFYSPFLE (WFYSPFLE),Kd (μM) Pintide nonphosphorylated WFYSPFLE (WFYSPFLE; listed as WW-domain of Nedd4),complementation of temperature-sensitive ptf1 phenotype (in words) [4],WFYpSPFLE Kd(μM) High affinity (WFYpSPFLE (Pintide); high affinity binding site),Kd (WFYpSPFLE (Pintide); [5]) [µM],Phosphoprotein binding activity [3],PPlase Activity (%) (peptide substrate),Kd for Pintide (μM) (WFYpSPFLE (Pintide)),effect on ability of Cdc2 phosphorylated tau to promote MT assembly (tau-promoted MT assembly)
CC(C)[C@H](NC(=O)[C@H](C)NC(=O)[C@@H](NC(=O)[C@@H](N)CCCCN)C(C)C)C(=O)N[C@H](C(=O)N[C@@H](CCCNC(=N)N)C(=O)N[C@H](C(=O)N1CCC[C@H]1C(=O)N1CCC[C@H]1C(=O)N[C@@H](CCCCN)C(=O)N[C@@H](CO)C(=O)N1CCC[C@H]1C(=O)N[C@@H](CO)C(=O)O)[C@@H](C)OP(=O)(O)O)C(C)C [pT-231],1.30,1.46,0.00,,,,,,,,,,,,,
Nedd4 WW-domain: GST-WW-domain of ubiquitin ligase Nedd4; text ties Table 1 to WW-domain-2,,,,N.B.*,10,20,bound only a few MPM-2 antigens,N.B.,did not bind,,,,,,,
Pin1^S16E: Pin1 with Ser-16 mutated to Glu,,,,,,,failed to bind mitotic phosphoproteins,,,abolish the ability of Pin1 to support cell growth,no high affinity-binding site,10.5,−,95,,
Pin1^W34A: Pin1 with single Ala point mutation of Trp-34 in the WW-domain,,,,,,,completely abolished,,,abolish the ability of Pin1 to support cell growth,,14,−,94,N.B.,
Pin1^Y23A: Pin1 with single Ala point mutation of Tyr-23 in the WW-domain,,,,,,,completely abolished,,,abolish the ability of Pin1 to support cell growth,,13.5,−,85,N.B.,did not have any effect
